# Measurements published in the SangsterLogP compilation.
# Assay: method code SF, from DOI: 10.1021/jf00070a034
row,Structure (SMILES),logP
1,CN(C)C(=O)Nc1ccc(Cl)cc1,2.01
2,CCNc1nc(Cl)nc(NC2CC2)n1,2.13
3,CCCCCC(C)Nc1nc(Cl)nc(NCC)n1 (stereo not drawn),4.74
4,CCCC(C)C(=O)Nc1ccc(C)c(Cl)c1 (stereo not drawn),4.31
5,CCNc1nc(Cl)nc(NC2CCC2)n1,2.77
6,O=C(Cc1ccccc1)Nc1ccccc1,2.72
7,CC1(NC(=O)Nc2ccccc2)CCCCC1,3.6
8,C=CCNc1nc(Cl)nc(NCC=C)n1,2.75
9,CCCC(C)(C)C(=O)Nc1ccc(Cl)cc1,3.83
10,C=CC(C)C(=O)Nc1ccc(Cl)c(Cl)c1 (stereo not drawn),3.49
11,CNC(=O)Nc1cccc(OC)c1,1.26
12,CCCc1ccc(NC(=O)N(C)C)cc1,2.55
13,O=C(Cc1ccccc1)Nc1ccc([N+](=O)[O-])cc1,3.17
14,CN(C)C(=O)Nc1cccc(Cc2ccccc2)c1,2.83
15,CCNc1nc(Cl)nc(NCC2CC2)n1,2.85
16,CN(C)C(=O)Nc1cccc(CCc2ccccc2)c1,3.21
17,CC(C)CNC(=O)Nc1ccc(Cl)c(Cl)c1,4.48
18,CCNc1nc(Cl)nc(NC2CCCCC2)n1,3.63
